Measured values as given in the NIST ThermoML archive (doi:10.1021/je0499364).

Assays:
[1] = Molar enthalpy of transition or fusion; details: Crystal
[2] = Crystal
[3] = molar heat capacity at constant pressure; details: 101.33 kPa

CCCCCCCCCCCCCCCCC(=O)OC [methyl heptadecanoate]
Details	Molar enthalpy of transition or fusion [kcal/mol]	Triple point temperature [K]
[1]	15.27	–
[2]	–	303.09

[3]
Details	molar heat capacity at constant pressure [J/K/mol]
5 K, Crystal	0.56
10 K, Crystal	4.36
20 K, Crystal	23.27
30 K, Crystal	48.82
40 K, Crystal	77.97
50 K, Crystal	106.88
60 K, Crystal	131.71
70 K, Crystal	154.68
80 K, Crystal	175.53
90 K, Crystal	192.9
100 K, Crystal	208.51
110 K, Crystal	224.09
120 K, Crystal	238.4
130 K, Crystal	252.69
140 K, Crystal	265.74
150 K, Crystal	275.72
160 K, Crystal	284.57
170 K, Crystal	302.09
180 K, Crystal	313.76
190 K, Crystal	326.38
200 K, Crystal	340.04
210 K, Crystal	355.66
220 K, Crystal	367.89
230 K, Crystal	382.88
240 K, Crystal	399.49
250 K, Crystal	418.37
260 K, Crystal	438.62
270 K, Crystal	456.93
280 K, Crystal	480.24
290 K, Crystal	517.76
310 K, Liquid	599.17
320 K, Liquid	605.44
330 K, Liquid	609.25
340 K, Liquid	615.4
350 K, Liquid	622.81

CCCCCCCCCCCCCCCC(=O)OC [methyl hexadecanoate]
Details	Molar enthalpy of transition or fusion [kcal/mol]
[1]	14.35

Details	Triple point temperature [K]
[2], Adiabatic calorimetry	302.71

[3]
Details	molar heat capacity at constant pressure [J/K/mol]
5 K, Crystal	0.66
10 K, Crystal	5.56
20 K, Crystal	23.7
30 K, Crystal	47.98
40 K, Crystal	75.87
50 K, Crystal	104.12
60 K, Crystal	129.69
70 K, Crystal	151.19
80 K, Crystal	167.13
90 K, Crystal	184.19
100 K, Crystal	198.32
110 K, Crystal	213.49
120 K, Crystal	226.5
130 K, Crystal	238.62
140 K, Crystal	250.27
150 K, Crystal	261.54
160 K, Crystal	272.73
170 K, Crystal	284.03
180 K, Crystal	295.27
190 K, Crystal	306.8
200 K, Crystal	318.65
210 K, Crystal	330.97
220 K, Crystal	343.93
230 K, Crystal	357.74
240 K, Crystal	372.37
250 K, Crystal	388.24
260 K, Crystal	405.39
270 K, Crystal	423.81
280 K, Crystal	448.6
290 K, Crystal	482.7
300 K, Crystal	740.48
310 K, Liquid	570.55
320 K, Liquid	576.47
330 K, Liquid	583.02
340 K, Liquid	590.14
350 K, Liquid	597.66

CCCCCCCCCCCCCCCCCCC(=O)OC [methyl nonadecanoate]
Details	Molar enthalpy of transition or fusion [kcal/mol]	Triple point temperature [K]
[1]	16.95	–
[2]	–	311.49

[3]
Details	molar heat capacity at constant pressure [J/K/mol]
5 K, Crystal	0.69
10 K, Crystal	5.1
20 K, Crystal	26.27
30 K, Crystal	55.13
40 K, Crystal	87.37
50 K, Crystal	117.8
60 K, Crystal	143.77
70 K, Crystal	168.98
80 K, Crystal	190.79
90 K, Crystal	210.18
100 K, Crystal	228.66
110 K, Crystal	244.31
120 K, Crystal	259.07
130 K, Crystal	273.22
140 K, Crystal	286.84
150 K, Crystal	300.17
160 K, Crystal	313.53
170 K, Crystal	327.31
180 K, Crystal	339.52
190 K, Crystal	353.2
200 K, Crystal	367.35
210 K, Crystal	380.94
220 K, Crystal	397.52
230 K, Crystal	413.93
240 K, Crystal	432.32
250 K, Crystal	450.65
260 K, Crystal	469.65
270 K, Crystal	491.94
280 K, Crystal	518.01
290 K, Crystal	549.43
300 K, Crystal	586.63
320 K, Liquid	691.61
330 K, Liquid	677.17
340 K, Liquid	684.76
350 K, Liquid	693.78

CCCCCCCCC(=O)OC [methyl nonanoate]
Details	Molar enthalpy of transition or fusion [kcal/mol]	Triple point temperature [K]
[1]	6.53	–
[2]	–	238.72

[3]
Details	molar heat capacity at constant pressure [J/K/mol]
5 K, Crystal	0.39
10 K, Crystal	2.96
20 K, Crystal	17.17
30 K, Crystal	34.66
40 K, Crystal	53.39
50 K, Crystal	71.31
60 K, Crystal	86.46
70 K, Crystal	100.55
80 K, Crystal	113.08
90 K, Crystal	123.98
100 K, Crystal	134.32
110 K, Crystal	143.79
120 K, Crystal	152.28
130 K, Crystal	160.47
140 K, Crystal	168.48
150 K, Crystal	175.96
160 K, Crystal	183.23
170 K, Crystal	190.85
180 K, Crystal	198.49
190 K, Crystal	206.56
200 K, Crystal	215.27
210 K, Crystal	224.62
220 K, Crystal	236.53
230 K, Crystal	265.31
240 K, Liquid	330.8
250 K, Liquid	330.84
260 K, Liquid	333.42
270 K, Liquid	335.9
280 K, Liquid	338.72
290 K, Liquid	342.82
300 K, Liquid	346.27
310 K, Liquid	350.79
320 K, Liquid	354.3
330 K, Liquid	359.1
340 K, Liquid	363.82
350 K, Liquid	368.16
